Test results taken from publication PMC6017115, “Inhibitory Effect of Sauchinone on UDP-Glucuronosyltransferase (UGT) 2B7 Activity” (Molecules : A Journal of Synthetic Chemistry and Natural …, 2018).

Legend:
[1] = parameters: method as in PMID 25747980; conditions: mice; oral administration of 100 mg/kg sauchinone; read-out: Cmax in mice plasma; cited from earlier work
[2] = target: T1, UGT1A1 (Homo sapiens, UniProt P22309); test: Inhibition of UGT1A1 (β-estradiol glucuronidation) in human liver microsomes; type: in vitro ADME; conditions: substrate 10 μM β-estradiol, mean (minimum–maximum)
T1 construct: The reaction mixture containing 0.25 mg/mL protein of HLM; tissue Corning Life Sciences 452156; host or cells: pooled human liver microsomes, 50 donors
T1 sequence (P22309 26-533): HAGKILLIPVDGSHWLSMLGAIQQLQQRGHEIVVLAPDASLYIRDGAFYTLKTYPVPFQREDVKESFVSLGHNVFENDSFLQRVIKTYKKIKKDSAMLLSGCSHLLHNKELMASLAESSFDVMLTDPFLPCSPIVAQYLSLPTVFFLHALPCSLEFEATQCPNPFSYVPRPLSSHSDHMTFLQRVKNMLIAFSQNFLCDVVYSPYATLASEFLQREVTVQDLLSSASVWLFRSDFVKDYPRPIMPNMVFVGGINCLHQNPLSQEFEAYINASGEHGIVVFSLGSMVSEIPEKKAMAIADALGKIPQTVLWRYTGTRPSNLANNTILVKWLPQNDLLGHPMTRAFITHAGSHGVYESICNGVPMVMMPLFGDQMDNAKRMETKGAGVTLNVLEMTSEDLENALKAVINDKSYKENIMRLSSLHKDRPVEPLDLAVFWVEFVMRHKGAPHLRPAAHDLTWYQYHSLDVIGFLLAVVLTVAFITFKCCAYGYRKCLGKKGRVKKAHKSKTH
Procedure: (§1) Their IC50 values were compared to that of sauchinone. […] UGT-mediated activities in the presence of sauchinone as an inhibitor were expressed as percentages of corresponding control values (in absence of sauchinone). From percentages of control activity versus inhibitor concentrations, a sigmoid shaped curve was fitted to the data and IC50 as an enzyme inhibition parameter was calculated by fitting the Hill equation to the data using GraphPad Prism 5 (GraphPad Software Inc., San Diego, CA, USA).

[3] = target: T2, UGT1A3 (Homo sapiens, UniProt P35503); test: Inhibition of UGT1A3 (chenodeoxy cholic acid glucuronidation) in human liver microsomes; type: in vitro ADME; conditions: substrate 15 μM chenodeoxy cholic acid, mean (minimum–maximum)
T2 construct: The reaction mixture containing 0.25 mg/mL protein of HLM; tissue Corning Life Sciences 452156; host or cells: pooled human liver microsomes, 50 donors
T2 sequence (P35503 29-534): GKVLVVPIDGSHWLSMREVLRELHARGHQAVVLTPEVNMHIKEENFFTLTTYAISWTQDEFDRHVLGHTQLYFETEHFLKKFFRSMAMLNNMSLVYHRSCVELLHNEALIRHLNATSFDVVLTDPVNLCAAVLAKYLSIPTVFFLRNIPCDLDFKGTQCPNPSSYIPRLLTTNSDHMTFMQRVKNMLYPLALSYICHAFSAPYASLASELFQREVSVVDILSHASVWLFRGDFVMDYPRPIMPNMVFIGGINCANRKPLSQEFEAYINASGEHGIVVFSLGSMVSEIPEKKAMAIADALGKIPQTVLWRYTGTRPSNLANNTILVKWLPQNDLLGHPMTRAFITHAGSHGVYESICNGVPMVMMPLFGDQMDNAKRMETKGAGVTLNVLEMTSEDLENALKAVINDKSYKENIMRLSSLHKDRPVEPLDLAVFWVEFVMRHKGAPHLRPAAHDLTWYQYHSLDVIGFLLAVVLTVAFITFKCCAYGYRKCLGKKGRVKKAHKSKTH
Procedure: as §1

[4] = tested on: Ugt2b7; test: Inhibition of Ugt2b7 (zidovudine) in mice liver microsomes; type: in vitro ADME; conditions: mouse, pH 7.6, probe zidovudine (100 μM, in UGT substrate cocktail)
Procedure: (§2) Their IC50 values were compared to that of sauchinone. […] Mice were sacrificed and then livers were removed and rinsed with saline. After weighing the livers, they were homogenized with a four-fold volume of ice-cold homogenizing buffer (0.154 M KCl, 50 mM Tris-base, 1 mM EDTA, pH 7.4). After centrifugation for 35 min at 9000× g and 4 °C, the supernatants were centrifuged for 95 min at 100,000× g and at 4 °C. The supernatants were discarded and the pellets were homogenized again with ice-cold homogenizing buffer. These aliquots were stored at −80 °C. The subsequent process to evaluate the inhibitory effects of sauchinone on UGT activities in MLM was the same as those using HLM. UGT-mediated activities in the presence of sauchinone as an inhibitor were expressed as percentages of corresponding control values (in absence of sauchinone). From percentages of control activity versus inhibitor concentrations, a sigmoid shaped curve was fitted to the data and IC50 as an enzyme inhibition parameter was calculated by fitting the Hill equation to the data using GraphPad Prism 5 (GraphPad Software Inc., San Diego, CA, USA).

[5] = target: T3, UGT2B7 (Homo sapiens, UniProt P16662); test: Inhibition of UGT2B7 (zidovudine glucuronidation) in human liver microsomes; type: in vitro ADME; parameters: tissue Corning Life Sciences 452156; host or cells: pooled human liver microsomes
T3 sequence (P16662 24-529): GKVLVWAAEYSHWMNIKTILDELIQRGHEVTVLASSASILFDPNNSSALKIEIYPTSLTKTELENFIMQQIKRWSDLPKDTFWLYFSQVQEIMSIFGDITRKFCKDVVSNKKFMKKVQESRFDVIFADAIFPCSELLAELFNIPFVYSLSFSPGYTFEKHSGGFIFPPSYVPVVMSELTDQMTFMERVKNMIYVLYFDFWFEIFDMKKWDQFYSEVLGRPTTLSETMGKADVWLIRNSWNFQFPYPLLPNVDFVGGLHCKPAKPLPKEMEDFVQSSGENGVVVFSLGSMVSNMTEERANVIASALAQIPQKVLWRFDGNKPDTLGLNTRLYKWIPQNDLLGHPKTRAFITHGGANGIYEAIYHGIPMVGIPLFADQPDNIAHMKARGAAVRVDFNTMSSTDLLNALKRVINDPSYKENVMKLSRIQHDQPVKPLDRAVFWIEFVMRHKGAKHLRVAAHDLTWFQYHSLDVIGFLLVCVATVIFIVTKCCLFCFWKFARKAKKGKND
Procedure: as §1

[6] = tested on: Ugt1a3; test: Inhibition of Ugt1a3 (CDCA) in mice liver microsomes; type: in vitro ADME; conditions: mouse, pH 7.6, read-out: IC50 of Ugt1a3-catalyzed CDCA
Procedure: as §2

For C[C@@H]1[C@H]2c3cc4c(cc3O[C@@]35OCOC3=CC(=O)[C@H](C[C@H]1C)[C@@H]25)OCO4 [Sauchinone], the Cmax [1] is listed as 1530 nM, the IC50 [2] is listed as 8.83 µM and the IC50 [3] is listed as 43.9 µM. The IC50 [4] was 23 µM, the IC50 [5] was 0.279 µM and the IC50 [6] was 79.9 µM.
